Laboratory results published in ChEMBL document CHEMBL4825682, “Discovery of novel purinylthiazolylethanone derivatives as anti-Candida albicans agents through possible multifaceted mechanisms” (Eur J Med Chem, 2021).
In brackets after ≈: the same amount, converted by molar mass. Activity calls are given as the source filed them. The rule behind the calls is not given here.

Columns and labels:
Candida albicans [1] = assay: Antifungal activity against Candida albicans assessed as fungal growth inhibition by CLSI protocol based microbroth dilution method; format: functional
Candida albicans [2] = assay: Antifungal activity against Candida albicans ATCC 90023 assessed as fungal growth inhibition by CLSI protocol based microbroth dilution method; format: functional
Candida tropicalis [3] = assay: Antifungal activity against Candida tropicalis assessed as fungal growth inhibition by CLSI protocol based microbroth dilution method; format: functional
Aspergillus fumigatus = assay: Antifungal activity against Aspergillus fumigatus assessed as fungal growth inhibition by CLSI protocol based microbroth dilution method; format: functional
Candida parapsilosis = assay: Antifungal activity against Candida parapsilosis ATCC 22019 assessed as fungal growth inhibition by CLSI protocol based microbroth dilution method; format: functional; settings: Lodderomyces parapsilosis
[4] = Hemolytic activity in human RBC; format: cell-based, Erythrocyte; settings: human red blood cells (erythrocytes)
[5] = Hemolytic activity in human RBC at MIC relative to control; format: ADME, cell-based, Erythrocyte; settings: human red blood cells (erythrocytes), read-out: Activity
[6] = Hemolytic activity in human RBC at 8 times MIC relative to control; format: ADME, cell-based, Erythrocyte; settings: human red blood cells (erythrocytes), read-out: Activity
L02 [7] = assay: Cytotoxicity against human L02 cells assessed as increase in cell viability measured after 72 hrs by CCK8 assay relative to control; format: cell-based; settings: l02, 72 h
L02 [8] = assay: Cytotoxicity against human L02 cells at 100 ug/ml measured after 72 hrs by CCK8 assay; format: cell-based; settings: l02, 72 h, dose 100 µg/ml
Candida albicans [9] = assay: Antifungal activity against Candida albicans measured after 16 passages; format: functional, organism-based
Candida tropicalis [10] = assay: Potentiation of fluconazole-induced antifungal activity against Candida tropicalis assessed as fluconazole MIC (reference value: […] ug/ml); format: functional
Candida albicans [11] = assay: Synergistic antifungal activity against Candida albicans assessed as fractional inhibitory concentration index in presence of fluconazole; format: functional
Candida albicans [12] = assay: Potentiation of fluconazole-induced antifungal activity against Candida albicans assessed as fluconazole MIC (reference value: […] ug/ml); format: functional
Candida tropicalis [13] = assay: Additive antifungal activity against Candida tropicalis assessed as fractional inhibitory concentration index in presence of fluconazole; format: functional
Candida albicans [14] = assay: Antibiofilm activity against Candida albicans assessed as inhibition of biofilm formation at 0.5 to 5 times MIC by Alamar blue assay; format: functional, organism-based
Cell membrane [15] = assay: Induction of cell membrane permeabilization in Candida albicans up to 6 times MIC by propidium iodide staining based fluorescence assay; format: subcellular
Cell wall [16] = assay: Induction of cell wall damage in Candida albicans; format: subcellular
Cell wall [17] = assay: Induction of cell wall damage in Candida tropicalis; format: subcellular
Cell wall [18] = assay: Induction of cell wall damage in Aspergillus fumigatus; format: subcellular
Cell membrane [19] = assay: Induction of cytoplasmic membrane depolarization in Candida albicans by diSC3(5)-dye based assay; format: subcellular
Cell membrane [20] = assay: Induction of cell membrane disruption in Candida albicans assessed as increase in protein leakage by Bradford assay; format: subcellular
Cell membrane [21] = assay: Induction of cell membrane destruction in Candida albicans assessed as reduction in LDH activity at MIC relative to control; format: subcellular; parameters: scale not given: the % may be the effect or the level left
Cell membrane [22] = assay: Induction of cell membrane destruction in Candida albicans assessed as reduction in LDH activity at 4 times MIC relative to control; format: subcellular; parameters: scale not given: the % may be the effect or the level left
Candida albicans [23] = assay: Antifungal activity against Candida albicans assessed as reduction in metabolic activity at 0.5 to 6 times MIC by resazurin assay; format: functional, organism-based
Candida albicans [24] = assay: Induction of oxidative stress in Candida albicans assessed as increase in ROS generation by […] probe based assay; format: functional, organism-based
Candida albicans [25] = assay: Induction of reactive nitrogen species generation in Candida albicans assessed as increase in NO level at 6 times MIC by Greiss reagent assay relative to control; format: functional
Candida albicans [26] = assay: Induction of oxidative stress in Candida albicans assessed as decrease in cellular GSH level; format: functional, organism-based

CCOC(=O)CN1CCN(c2ncnc3c2ncn3CC(=O)c2nccs2)CC1
MIC (Candida albicans [1]): 1 µg/mL (≈ 2.41 µM)
MIC (Candida albicans [2]): 16 µg/mL (≈ 38.5 µM)
MIC (Candida tropicalis [3]): 8 µg/mL (≈ 19.3 µM)
MIC (Aspergillus fumigatus): 16 µg/mL (≈ 38.5 µM)
MIC (Candida parapsilosis): 8 µg/mL (≈ 19.3 µM)
HC50 [4]: > 256 µg/mL
hemolysis at 1 x MIC [5]: 2.6%
hemolysis at 8 x MIC [6]: 3.8%
Activity (L02 [7]): > 60%
Activity (L02 [8]): Toxic
Activity (Candida albicans [9]): Active
MIC (Candida tropicalis [10]): 8 µg/mL
fractional inhibitory concentration index (FICI) (Candida albicans [11]): 0.56
MIC (Candida albicans [12]): 0.0625 µg/mL
fractional inhibitory concentration index (FICI) (Candida tropicalis [13]): 1.02
inhibition (Candida albicans [14]): Active
Activity (Cell membrane [15]): Active
Activity (Cell wall [16]): Active
Activity (Cell wall [17]): Active
Activity (Cell wall [18]): inactive
Activity (Cell membrane [19]): Active
Activity (Cell membrane [20]): Dose-Dependent Effect
Activity (Cell membrane [21]): 30%
Activity (Cell membrane [22]): 50%
Activity (Candida albicans [23]): Active
Activity (Candida albicans [24]): Dose-Dependent Effect
fold change (FC) (Candida albicans [25]): 3.6
Activity (Candida albicans [26]): Active
